Source: publication PMC8308496, “RP-18 TLC Chromatographic and Computational Study of Skin Permeability of Steroids” (Pharmaceuticals, 2021)
Like-named read-outs stand apart in the source and are kept apart here.

Columns and labels:
[1] = RP-18 thin layer chromatography (RM); type: physicochemical; conditions: RP-18 F254s TLC, acetonitrile/pH 7.4 phosphate buffered saline 70:30 (v/v); RM = log (1/Rf−1)
Description: Thin layer chromatography was performed according to [33] on 10 × 20 cm glass-backed RP-18 F254s TLC plates from Merck, Germany (layer thickness 0.25 mm). Before use, the plates were prewashed with methanol-dichloromethane 1:1 (v/v) and dried overnight in ambient conditions. […] The chromatographic plates were developed in a vertical chromatographic chamber lined with filter paper and previously saturated with the mobile phase vapor for 20 min. The mobile phase consisted of acetonitrile/pH 7.4 phosphate buffered saline 70:30 (v/v). The development distance was 95 mm from the plate bottom edge. After development, the plates were dried at room temperature and examined under UV light (254 nm) and with the Desaga CD60 densitometer (Multiwavelength Scan, 200–300 nm at 20 nm intervals). All chromatograms were repeated in duplicate, and the mean Rf values were used in further investigations. The chromatographic parameter RM considered in these investigations was defined by Bate-Smith and Westall: RM= log (1/Rf−1).

[2] = experimental, cited from earlier work
[3] = hydrocortisone esters 17 to 27, ref 40 (Anderson et al.)
[4] = nonsteroid compounds 39 to 46, source not given

Structure (SMILES)	RM [1]	logKp^exp ([2]; compounds 1 to 16)	other results
CC(=O)OCC(=O)[C@@]1(O)CC[C@H]2[C@@H]3CCC4=CC(=O)CC[C@]4(C)[C@H]3[C@@H](O)C[C@@]21C [compound 29, HC acetate]	−0.12		
CC(=O)[C@H]1CC[C@H]2[C@@H]3CC=C4C[C@@H](O)CC[C@]4(C)[C@H]3CC[C@]12C [compound 8, Pregnenolone]		−2.82	
C[C@]12CC[C@H]3[C@@H](CCC4=CC(=O)CC[C@@]43C)[C@@H]1CC[C@@H]2C(=O)CO [compound 11, Deoxycorticosterone]		−3.34	
C[C@]12CCC(=O)C=C1CC[C@@H]1[C@@H]2CC[C@@]2(C)[C@H]1CC[C@]2(O)C(=O)CO [compound 13, Cortexolone]		−4.12	
CCCCCCCC(=O)OCC(=O)[C@@]1(O)CC[C@H]2[C@@H]3CCC4=CC(=O)CC[C@]4(C)[C@H]3[C@@H](O)C[C@@]21C [compound 27, HC octanoate]			logKp^exp [2, 3]: −1.21
C[C@]12CCC(=O)C=C1CC[C@@H]1[C@@H]2[C@@H](O)C[C@]2(C=O)[C@@H](C(=O)CO)CC[C@@H]12 [compound 6, Aldosterone]		−4.41	
CNC(=C[N+](=O)[O-])NCCSCc1ccc(CN(C)C)o1 [compound 40, Ranitidine]	−0.66		
C[C@]12CC[C@@H]3c4ccc(O)cc4CC[C@H]3[C@@H]1CCC2=O [compound 5, Estrone]	0.09	−2.44	
C[C@]12CCC(=O)C=C1CC[C@@H]1[C@@H]2[C@@H](O)C[C@@]2(C)[C@H]1CC[C@]2(O)C(=O)COC(=O)CCCCCO [compound 23, HC 6-hydroxyhexanoate]			logKp^exp [2, 3]: −3.04
C[C@]12CC[C@@H]3c4ccc(O)cc4CC[C@H]3[C@@H]1CC[C@@H]2O [compound 14, Estradiol]		−2.21	
CC(=O)OCC(=O)[C@@]1(O)CC[C@H]2[C@@H]3CCC4=CC(=O)CC[C@]4(C)[C@H]3C(=O)C[C@@]21C [compound 31, Cortisone acetate]	−0.12		
C#C[C@]1(O)CC[C@H]2[C@@H]3[C@H](C)CC4=C(CCC(=O)C4)[C@H]3CC[C@@]21C [compound 38, Tibolone]	0.33		
O=C(O)c1ccccc1O [compound 43, Salicylic acid]	−0.37		logKp^exp [2, 4]: −2.84
CC(=O)[C@@]1(O)CC[C@H]2[C@@H]3CCC4=CC(=O)CC[C@]4(C)[C@H]3CC[C@@]21C [compound 9, 17-α-Hydroxyprogesterone]		−3.22	
C[C@]12CCC(=O)C=C1CC[C@@H]1[C@@H]2[C@@H](O)C[C@@]2(C)[C@H]1CC[C@]2(O)C(=O)CO [compound 2, Hydrocortisone]	−0.33	−4.79	
CC(=O)Oc1ccccc1C(=O)O [compound 41, Aspirin]	−0.50		logKp^exp [2, 4]: −2.14
C[C@]12CCC(=O)C=C1CC[C@@H]1[C@@H]2CC[C@@]2(C)[C@H]1CC[C@]2(C)O [compound 33, Methyltestosterone]	0.41		
C[C@]12CC[C@@H]3c4ccc(OC(=O)c5ccccc5)cc4CC[C@H]3[C@@H]1CC[C@@H]2O [compound 28, Estradiol benzoate]	0.91		

Structure (SMILES)	RM [1]	logKp^exp ([2]; compounds 1 to 16)	other results
COc1ccc2c(c1)c(CC(=O)O)c(C)n2C(=O)c1ccc(Cl)cc1 [compound 44, Indomethacin]	−0.07		
C[C@]12CCC(=O)C=C1CC[C@@H]1[C@@H]2C(=O)C[C@@]2(C)[C@H]1CC[C@]2(O)C(=O)CO [compound 16, Cortisone]		−5.00	
CC(=O)S[C@@H]1CC2=CC(=O)CC[C@]2(C)[C@H]2CC[C@@]3(C)[C@@H](CC[C@@]34CCC(=O)O4)[C@H]12 [compound 35, Spironolactone]	0.14		
COc1ccc2cc([C@H](C)C(=O)O)ccc2c1 [compound 46, Naproxen]	−0.16		
CN1C(C(=O)Nc2ccccn2)=C(O)c2ccccc2S1(=O)=O [compound 45, Piroxicam]	0.00		logKp^exp [2, 4]: −3.81
CCC(=O)O[C@H]1CC[C@H]2[C@@H]3CCC4=CC(=O)CC[C@]4(C)[C@H]3CC[C@]12C [compound 32, Testosterone propionate]	0.85		
C[C@H]1O[C@@H](O[C@H]2[C@@H](O)C[C@H](O[C@H]3[C@@H](O)C[C@H](O[C@H]4CC[C@@]5(C)[C@H](CC[C@@H]6[C@@H]5C[C@@H](O)[C@]5(C)[C@@H](C7=CC(=O)OC7)CC[C@]65O)C4)O[C@@H]3C)O[C@@H]2C)C[C@H](O)[C@@H]1O [compound 37, Digoxin]	−0.91		
C[C@]12CC[C@H]3[C@@H](CCC4=CC(=O)CC[C@@]43C)[C@@H]1CC[C@@H]2O [compound 12, Testosterone]		−2.65	
CC(=O)[C@H]1CC[C@H]2[C@@H]3CCC4=CC(=O)CC[C@]4(C)[C@H]3CC[C@]12C [compound 3, Progesterone]	0.60		
CCCCCCC(=O)O[C@H]1CC[C@H]2[C@@H]3CCC4=CC(=O)CC[C@]4(C)[C@H]3CC[C@]12C [compound 34, Testosterone enanthate]	1.38		
COC(=O)[C@@H]1CC2=CC(=O)CC[C@]2(C)[C@@]23O[C@@H]2C[C@@]2(C)[C@@H](CC[C@@]24CCC(=O)O4)[C@H]13 [compound 36, Eplerenone]	−0.21		
COC(=O)CCCCCC(=O)OCC(=O)[C@@]1(O)CC[C@H]2[C@@H]3CCC4=CC(=O)CC[C@]4(C)[C@H]3[C@@H](O)C[C@@]21C [compound 25, HC methylpimelate]			logKp^exp [2, 3]: −2.27
C[C@@H]1C[C@H]2[C@@H]3CCC4=CC(=O)C=C[C@]4(C)[C@@]3(F)[C@@H](O)C[C@]2(C)[C@@]1(O)C(=O)CO [compound 1, Dexamethasone]	−0.35		
CCCCCC(=O)OCC(=O)[C@@]1(O)CC[C@H]2[C@@H]3CCC4=CC(=O)CC[C@]4(C)[C@H]3[C@@H](O)C[C@@]21C [compound 26, HC hexanoate]			logKp^exp [2, 3]: −1.74
COC(=O)c1ccc(O)cc1 [compound 42, Methylparaben]	−0.41		logKp^exp [2, 4]: −2.04
CC(=O)OCC(=O)[C@H]1CC[C@H]2[C@@H]3CCC4=CC(=O)CC[C@]4(C)[C@H]3CC[C@]12C [compound 30, Deoxycortisone acetate]	0.41		
C[C@]12C=CC(=O)C=C1CC[C@@H]1[C@@H]2[C@@H](O)C[C@@]2(C)[C@H]1CC[C@]2(O)C(=O)CO [compound 4, Prednisolone]	−0.33	−4.35	
CC(C)Cc1ccc(C(C)C(=O)O)cc1 (centres unmarked) [compound 39, Ibuprofen]	0.08		logKp^exp [2, 4]: −1.44
